ChEMBL document CHEMBL4507282, “Data for DCP probe BI-1950” (2021)

Assays:
[1] = target: Serine/threonine-protein kinase pim-2 (Homo sapiens) (UniProt Q9P1W9); conditions: Compound concentration 1000.0 nM
[2] = target: Mitogen-activated protein kinase 4 (Homo sapiens) (UniProt P31152); conditions: Compound concentration 1000.0 nM
[3] = target: Activated CDC42 kinase 1 (Homo sapiens) (UniProt Q07912); conditions: Compound concentration 1000.0 nM
[4] = target: Phosphatidylinositol 4,5-bisphosphate 3-kinase catalytic subunit gamma isoform (Homo sapiens) (UniProt P48736); conditions: Compound concentration 1000.0 nM
[5] = target: Serine/threonine-protein kinase PAK 3 (Homo sapiens) (UniProt O75914); conditions: Compound concentration 1000.0 nM
[6] = test system: Proto-oncogene tyrosine-protein kinase receptor Ret (Homo sapiens), P07949 [V804L]; conditions: Compound concentration 1000.0 nM
[7] = target: Serine/threonine-protein kinase Nek6 (Homo sapiens) (UniProt Q9HC98); conditions: Compound concentration 1000.0 nM
[8] = test system: Phosphatidylinositol 4,5-bisphosphate 3-kinase catalytic subunit alpha isoform (Homo sapiens), P42336 [Q546K]; conditions: Compound concentration 1000.0 nM
[9] = target: Dual specificity protein kinase CLK3 (Homo sapiens) (UniProt P49761); conditions: Compound concentration 1000.0 nM
[10] = target: Ribosomal protein S6 kinase alpha-3 (Homo sapiens) (UniProt P51812); conditions: Compound concentration 1000.0 nM
[11] = target: Mitogen-activated protein kinase kinase kinase kinase 1 (Homo sapiens) (UniProt Q92918); conditions: Compound concentration 1000.0 nM
Chain of Mitogen-activated protein kinase kinase kinase kinase 1 (Homo sapiens) (Q92918 whole entry, looked up): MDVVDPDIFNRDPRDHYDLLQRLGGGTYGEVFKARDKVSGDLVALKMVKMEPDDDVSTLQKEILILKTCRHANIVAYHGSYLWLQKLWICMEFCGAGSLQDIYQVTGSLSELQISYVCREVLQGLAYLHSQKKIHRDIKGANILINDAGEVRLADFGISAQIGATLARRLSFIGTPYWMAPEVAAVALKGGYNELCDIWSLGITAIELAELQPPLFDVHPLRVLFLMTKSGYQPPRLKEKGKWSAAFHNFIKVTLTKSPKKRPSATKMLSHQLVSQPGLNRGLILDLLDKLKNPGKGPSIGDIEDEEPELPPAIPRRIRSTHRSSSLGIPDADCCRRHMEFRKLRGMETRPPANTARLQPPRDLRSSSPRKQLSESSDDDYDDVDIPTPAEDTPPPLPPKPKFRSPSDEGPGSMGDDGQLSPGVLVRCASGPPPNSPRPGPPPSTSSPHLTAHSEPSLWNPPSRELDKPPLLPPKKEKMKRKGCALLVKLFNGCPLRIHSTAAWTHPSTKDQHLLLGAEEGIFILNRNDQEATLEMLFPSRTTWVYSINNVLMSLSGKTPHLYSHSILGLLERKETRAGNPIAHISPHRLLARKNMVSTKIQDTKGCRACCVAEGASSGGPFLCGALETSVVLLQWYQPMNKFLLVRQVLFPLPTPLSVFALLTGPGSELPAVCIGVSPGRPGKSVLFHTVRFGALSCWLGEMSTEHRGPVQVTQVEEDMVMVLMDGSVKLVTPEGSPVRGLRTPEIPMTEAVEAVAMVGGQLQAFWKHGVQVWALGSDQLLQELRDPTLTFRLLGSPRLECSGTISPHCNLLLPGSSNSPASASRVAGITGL

[12] = target: Serine/threonine-protein kinase D3 (Homo sapiens) (UniProt O94806); conditions: Compound concentration 1000.0 nM
[13] = target: Serine/threonine-protein kinase Sgk3 (Homo sapiens) (UniProt Q96BR1); conditions: Compound concentration 1000.0 nM
[14] = target: Serine/threonine-protein kinase WNK3 (Homo sapiens) (UniProt Q9BYP7); conditions: Compound concentration 1000.0 nM
[15] = target: Mast/stem cell growth factor receptor Kit (Homo sapiens) (UniProt P10721); conditions: Compound concentration 1000.0 nM
[16] = target: Misshapen-like kinase 1 (Homo sapiens) (UniProt Q8N4C8); conditions: Compound concentration 1000.0 nM
[17] = target: Proto-oncogene tyrosine-protein kinase Src (Homo sapiens) (UniProt P12931); conditions: Compound concentration 1000.0 nM
[18] = target: Casein kinase II subunit alpha (Homo sapiens) (UniProt P68400); conditions: Compound concentration 1000.0 nM
Chain of Casein kinase II subunit alpha (Homo sapiens) (P68400 whole entry, looked up): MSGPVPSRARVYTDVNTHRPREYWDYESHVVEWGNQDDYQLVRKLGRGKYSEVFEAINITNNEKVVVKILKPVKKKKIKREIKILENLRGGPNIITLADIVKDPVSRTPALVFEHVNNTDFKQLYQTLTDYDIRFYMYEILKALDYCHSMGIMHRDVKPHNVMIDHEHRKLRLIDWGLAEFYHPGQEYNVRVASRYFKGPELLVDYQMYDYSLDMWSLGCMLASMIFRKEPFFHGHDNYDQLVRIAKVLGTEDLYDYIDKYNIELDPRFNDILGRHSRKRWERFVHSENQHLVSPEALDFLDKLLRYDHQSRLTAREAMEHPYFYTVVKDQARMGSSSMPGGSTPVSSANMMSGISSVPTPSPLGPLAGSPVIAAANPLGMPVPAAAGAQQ

[19] = target: Epidermal growth factor receptor (Homo sapiens) (UniProt P00533); conditions: Compound concentration 1000.0 nM
[20] = target: Inhibitor of nuclear factor kappa-B kinase subunit epsilon (Homo sapiens) (UniProt Q14164); conditions: Compound concentration 1000.0 nM
[21] = target: Mitogen-activated protein kinase kinase kinase 1 (Homo sapiens) (UniProt Q13233); conditions: Compound concentration 1000.0 nM
[22] = target: Serine/threonine-protein kinase ICK (Homo sapiens) (UniProt Q9UPZ9); conditions: Compound concentration 1000.0 nM
[23] = target: Death-associated protein kinase 2 (Homo sapiens) (UniProt Q9UIK4); conditions: Compound concentration 1000.0 nM
[24] = target: Serine/threonine-protein kinase PLK1 (Homo sapiens) (UniProt P53350); conditions: Compound concentration 1000.0 nM
[25] = target: 5-hydroxytryptamine receptor 7 (Homo sapiens) (UniProt P34969); conditions: Compound concentration 10.0 uM
Chain of 5-hydroxytryptamine receptor 7 (Homo sapiens) (P34969 whole entry): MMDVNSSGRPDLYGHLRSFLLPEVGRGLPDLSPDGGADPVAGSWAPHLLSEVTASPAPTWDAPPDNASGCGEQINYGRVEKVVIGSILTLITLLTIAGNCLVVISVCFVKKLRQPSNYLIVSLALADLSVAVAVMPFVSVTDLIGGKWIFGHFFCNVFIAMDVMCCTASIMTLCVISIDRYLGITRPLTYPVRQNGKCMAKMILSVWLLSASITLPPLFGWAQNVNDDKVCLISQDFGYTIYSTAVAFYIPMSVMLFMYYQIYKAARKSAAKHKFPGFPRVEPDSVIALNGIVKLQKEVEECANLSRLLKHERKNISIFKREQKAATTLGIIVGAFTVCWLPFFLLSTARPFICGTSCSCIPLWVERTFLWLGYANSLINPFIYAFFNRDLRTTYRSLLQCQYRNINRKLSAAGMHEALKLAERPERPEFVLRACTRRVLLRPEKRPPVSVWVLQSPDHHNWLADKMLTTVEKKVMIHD

[26] = target: Receptor-type tyrosine-protein kinase FLT3 (Homo sapiens) (UniProt P36888); conditions: Compound concentration 1000.0 nM
[27] = target: Serine/threonine-protein kinase tousled-like 2 (Homo sapiens) (UniProt Q86UE8); conditions: Compound concentration 1000.0 nM
Chain of Serine/threonine-protein kinase tousled-like 2 (Homo sapiens) (Q86UE8 whole entry, looked up): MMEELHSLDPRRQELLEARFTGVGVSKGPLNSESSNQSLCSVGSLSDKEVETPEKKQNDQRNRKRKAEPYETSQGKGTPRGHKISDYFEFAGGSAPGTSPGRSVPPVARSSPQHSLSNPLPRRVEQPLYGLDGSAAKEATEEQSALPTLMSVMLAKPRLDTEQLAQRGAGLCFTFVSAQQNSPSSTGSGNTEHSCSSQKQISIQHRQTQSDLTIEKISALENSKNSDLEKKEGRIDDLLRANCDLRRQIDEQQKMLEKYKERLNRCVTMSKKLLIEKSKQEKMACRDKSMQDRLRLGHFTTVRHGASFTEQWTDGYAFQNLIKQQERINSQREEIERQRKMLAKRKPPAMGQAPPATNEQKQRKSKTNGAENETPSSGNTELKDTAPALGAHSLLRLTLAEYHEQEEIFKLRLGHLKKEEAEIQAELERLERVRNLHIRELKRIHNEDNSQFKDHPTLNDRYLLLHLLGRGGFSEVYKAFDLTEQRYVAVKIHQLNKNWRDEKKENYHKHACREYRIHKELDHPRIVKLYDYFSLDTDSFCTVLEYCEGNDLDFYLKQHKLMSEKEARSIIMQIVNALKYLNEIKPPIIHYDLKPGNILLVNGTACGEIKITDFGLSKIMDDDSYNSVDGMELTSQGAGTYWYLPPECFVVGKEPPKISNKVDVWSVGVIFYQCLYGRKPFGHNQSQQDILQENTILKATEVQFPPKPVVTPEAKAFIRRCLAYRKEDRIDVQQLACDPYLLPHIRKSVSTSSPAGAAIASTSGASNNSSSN

[28] = target: Tyrosine-protein kinase ABL1 (Homo sapiens) (UniProt P00519); conditions: Compound concentration 1000.0 nM
[29] = target: Homeodomain-interacting protein kinase 2 (Homo sapiens) (UniProt Q9H2X6); conditions: Compound concentration 1000.0 nM
Chain of Homeodomain-interacting protein kinase 2 (Homo sapiens) (Q9H2X6 whole entry, looked up): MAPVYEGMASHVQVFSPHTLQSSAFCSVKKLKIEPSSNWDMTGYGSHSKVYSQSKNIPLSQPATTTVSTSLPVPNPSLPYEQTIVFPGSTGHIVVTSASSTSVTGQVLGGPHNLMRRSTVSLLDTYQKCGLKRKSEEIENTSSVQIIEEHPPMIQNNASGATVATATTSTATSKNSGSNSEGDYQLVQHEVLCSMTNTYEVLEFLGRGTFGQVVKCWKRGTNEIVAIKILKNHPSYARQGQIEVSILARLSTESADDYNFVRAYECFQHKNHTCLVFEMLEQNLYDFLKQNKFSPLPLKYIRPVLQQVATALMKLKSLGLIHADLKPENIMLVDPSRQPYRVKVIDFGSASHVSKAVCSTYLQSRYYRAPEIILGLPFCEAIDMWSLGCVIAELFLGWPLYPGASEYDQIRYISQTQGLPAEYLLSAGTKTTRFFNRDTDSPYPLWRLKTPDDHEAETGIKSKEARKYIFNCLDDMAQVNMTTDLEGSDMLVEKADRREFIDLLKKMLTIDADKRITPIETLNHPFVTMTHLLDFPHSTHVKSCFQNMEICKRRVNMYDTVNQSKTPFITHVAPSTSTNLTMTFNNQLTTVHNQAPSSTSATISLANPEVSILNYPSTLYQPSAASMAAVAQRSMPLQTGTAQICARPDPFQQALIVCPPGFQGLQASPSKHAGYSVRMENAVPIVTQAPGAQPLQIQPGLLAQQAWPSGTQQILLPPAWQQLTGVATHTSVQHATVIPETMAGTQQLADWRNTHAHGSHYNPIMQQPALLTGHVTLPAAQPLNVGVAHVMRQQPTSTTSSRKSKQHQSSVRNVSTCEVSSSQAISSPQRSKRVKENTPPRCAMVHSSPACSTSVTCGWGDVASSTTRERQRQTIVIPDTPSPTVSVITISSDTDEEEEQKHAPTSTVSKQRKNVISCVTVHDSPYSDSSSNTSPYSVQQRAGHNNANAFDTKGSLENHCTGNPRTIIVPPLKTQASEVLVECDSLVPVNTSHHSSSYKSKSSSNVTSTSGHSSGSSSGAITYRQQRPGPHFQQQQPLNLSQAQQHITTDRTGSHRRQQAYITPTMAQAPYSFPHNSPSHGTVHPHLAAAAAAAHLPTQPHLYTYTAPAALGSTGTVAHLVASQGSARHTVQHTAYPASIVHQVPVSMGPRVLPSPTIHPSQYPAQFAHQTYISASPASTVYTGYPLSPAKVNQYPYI

[30] = target: STE20-like serine/threonine-protein kinase (Homo sapiens) (UniProt Q9H2G2); conditions: Compound concentration 1000.0 nM
[31] = target: Ephrin type-A receptor 2 (Homo sapiens) (UniProt P29317); conditions: Compound concentration 1000.0 nM
[32] = target: Bone morphogenetic protein receptor type-1B (Homo sapiens) (UniProt O00238); conditions: Compound concentration 1000.0 nM
[33] = target: Cyclin-G-associated kinase (Homo sapiens) (UniProt O14976); conditions: Compound concentration 1000.0 nM
[34] = target: Tyrosine-protein kinase TXK (Homo sapiens) (UniProt P42681); conditions: Compound concentration 1000.0 nM
[35] = target: Serine/threonine-protein kinase 3 (Homo sapiens) (UniProt Q13188); conditions: Compound concentration 1000.0 nM
[36] = target: Phosphatidylinositol 5-phosphate 4-kinase type-2 gamma (Homo sapiens) (UniProt Q8TBX8); conditions: Compound concentration 1000.0 nM
[37] = target: Non-receptor tyrosine-protein kinase TYK2 (Homo sapiens) (UniProt P29597); conditions: Compound concentration 1000.0 nM
[38] = target: T1, D(4) dopamine receptor (Homo sapiens) (UniProt P21917); conditions: Compound concentration 10.0 uM
T1 sequence (whole entry): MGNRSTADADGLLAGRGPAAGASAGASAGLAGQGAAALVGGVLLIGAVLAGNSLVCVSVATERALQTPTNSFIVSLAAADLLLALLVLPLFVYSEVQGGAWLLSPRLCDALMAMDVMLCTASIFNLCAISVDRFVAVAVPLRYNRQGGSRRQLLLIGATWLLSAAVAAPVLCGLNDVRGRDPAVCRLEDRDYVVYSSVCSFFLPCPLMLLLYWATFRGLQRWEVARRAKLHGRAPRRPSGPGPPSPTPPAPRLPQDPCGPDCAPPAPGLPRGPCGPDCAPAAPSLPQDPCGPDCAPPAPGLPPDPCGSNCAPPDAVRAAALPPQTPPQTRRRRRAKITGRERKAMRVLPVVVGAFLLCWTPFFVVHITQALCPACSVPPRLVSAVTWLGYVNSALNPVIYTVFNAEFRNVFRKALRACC

[39] = target: NUAK family SNF1-like kinase 1 (Homo sapiens) (UniProt O60285); conditions: Compound concentration 1000.0 nM

Chain of Activated CDC42 kinase 1 (Homo sapiens) (Q07912 whole entry, looked up, canonical isoform): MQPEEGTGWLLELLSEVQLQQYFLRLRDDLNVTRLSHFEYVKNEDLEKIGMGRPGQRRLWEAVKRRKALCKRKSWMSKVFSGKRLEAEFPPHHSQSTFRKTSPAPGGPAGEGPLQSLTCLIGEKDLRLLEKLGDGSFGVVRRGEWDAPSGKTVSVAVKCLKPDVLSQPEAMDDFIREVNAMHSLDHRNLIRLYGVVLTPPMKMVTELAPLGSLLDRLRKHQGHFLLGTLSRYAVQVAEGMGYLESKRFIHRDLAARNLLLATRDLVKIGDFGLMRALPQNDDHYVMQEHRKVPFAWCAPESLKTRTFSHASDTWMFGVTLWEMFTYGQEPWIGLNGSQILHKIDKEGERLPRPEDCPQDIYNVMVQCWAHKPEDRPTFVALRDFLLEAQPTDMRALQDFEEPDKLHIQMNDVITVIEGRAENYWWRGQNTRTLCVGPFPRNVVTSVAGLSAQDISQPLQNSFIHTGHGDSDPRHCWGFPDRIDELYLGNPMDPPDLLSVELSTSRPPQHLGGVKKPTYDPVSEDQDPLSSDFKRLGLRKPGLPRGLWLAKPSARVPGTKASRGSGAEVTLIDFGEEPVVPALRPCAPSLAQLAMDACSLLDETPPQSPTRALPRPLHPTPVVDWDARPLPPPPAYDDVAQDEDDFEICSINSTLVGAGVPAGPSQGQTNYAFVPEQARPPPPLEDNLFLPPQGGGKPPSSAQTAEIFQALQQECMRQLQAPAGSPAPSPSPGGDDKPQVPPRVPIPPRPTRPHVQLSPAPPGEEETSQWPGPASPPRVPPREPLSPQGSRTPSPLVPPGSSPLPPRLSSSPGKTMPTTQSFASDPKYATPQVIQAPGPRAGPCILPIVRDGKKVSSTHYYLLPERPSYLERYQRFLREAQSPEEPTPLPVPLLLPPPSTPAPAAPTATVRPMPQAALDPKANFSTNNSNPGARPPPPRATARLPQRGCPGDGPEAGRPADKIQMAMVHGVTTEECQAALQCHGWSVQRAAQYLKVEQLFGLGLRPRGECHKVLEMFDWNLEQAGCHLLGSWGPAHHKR
Chain of Serine/threonine-protein kinase pim-2 (Homo sapiens) (Q9P1W9 whole entry, looked up): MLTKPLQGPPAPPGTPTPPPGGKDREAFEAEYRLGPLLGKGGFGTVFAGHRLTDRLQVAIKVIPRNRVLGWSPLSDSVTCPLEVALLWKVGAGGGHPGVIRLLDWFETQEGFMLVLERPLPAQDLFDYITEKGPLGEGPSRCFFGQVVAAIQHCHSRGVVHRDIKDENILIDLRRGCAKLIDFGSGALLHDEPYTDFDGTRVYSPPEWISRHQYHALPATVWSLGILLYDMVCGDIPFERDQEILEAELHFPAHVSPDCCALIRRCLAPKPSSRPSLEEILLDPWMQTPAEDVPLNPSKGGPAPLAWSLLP

C[C@H](NC(=O)c1cnc2n1[C@](C)(Cc1ccc(C#N)cc1)C(=O)N2c1cc(Cl)c(F)c(Cl)c1)C(=O)NC1(c2ccccn2)CC1 [BI 1950]
inactive: residual activity [1] 100% | residual activity [2] 100% | residual activity [3] 94% | residual activity [4] 86% | residual activity [5] 100% | residual activity [6] 100% | residual activity [7] 100% | residual activity [8] 97% | residual activity [9] 96% | residual activity [10] 100% | residual activity [11] 100% | residual activity [12] 100% | residual activity [13] 100% | residual activity [14] 78% | residual activity [15] 91% | residual activity [16] 100% | residual activity [17] 100% | residual activity [18] 81% | residual activity [19] 100% | residual activity [20] 89% | residual activity [21] 100% | residual activity [22] 100% | residual activity [23] 100% | residual activity [24] 100% | inhibition [25] -4.31% | residual activity [26] 100% | residual activity [27] 59% | residual activity [28] 99% | residual activity [29] 100% | residual activity [30] 100% | residual activity [31] 75% | residual activity [32] 99% | residual activity [33] 92% | residual activity [34] 90% | residual activity [35] 100% | residual activity [36] 100% | residual activity [37] 100% | inhibition [38] -2.68% | residual activity [39] 99%

C[C@@]1(Cc2ccc(C#N)cc2)C(=O)N(c2cc(Cl)cc(Cl)c2)c2ncc(C(=O)NC3(c4nc(C5CCC5)no4)CC3)n21 [BI 9446]
inactive: residual activity [1] 98% | residual activity [2] 100% | residual activity [3] 86% | residual activity [4] 95% | residual activity [5] 100% | residual activity [6] 100% | residual activity [7] 100% | residual activity [8] 88% | residual activity [9] 100% | residual activity [10] 100% | residual activity [11] 100% | residual activity [12] 87% | residual activity [13] 100% | residual activity [14] 100% | residual activity [15] 98% | residual activity [16] 100% | residual activity [17] 98% | residual activity [18] 91% | residual activity [19] 100% | residual activity [20] 80% | residual activity [21] 100% | residual activity [22] 100% | residual activity [23] 84% | residual activity [24] 100% | inhibition [25] 4.18% | residual activity [26] 100% | residual activity [27] 97% | residual activity [28] 100% | residual activity [29] 100% | residual activity [30] 100% | residual activity [31] 56% | residual activity [32] 100% | residual activity [33] 100% | residual activity [34] 100% | residual activity [35] 100% | residual activity [36] 100% | residual activity [37] 100% | inhibition [38] 13.6% | residual activity [39] 100%
